Source: US6844182B2, “Mutants which produce a potentiator of bacillus pesticidal activity” (priority 1992, dated 2005)
Read-outs that look alike come from different tables or passages of the source.

Experiments:
[1] = test system: Alternaria alternata; assay: Fungal growth inhibition assay, Alternaria alternata; format: cell-based
Protocol: (§1) Mutants of the Bacillus thuringiensis subsp. kurstaki strain which produce the factor are identified using fungal agar plates of Septoria nodorum and Alternaria alternata.
(§2) The two fungi are grown on PDA (potato dextrose agar) plates at 26° C. for 10-14 days until sufficient sporulation is obtained. Alternaria alternata is incubated in alternating UV light and darkness (12 hrs. each). The spores are removed from the plates and suspended in sterile water. Septoria nodorum spores are filtered through a sterile G1 filter. The Alternaria alternata spore concentration is adjusted to approximately 2×10^5 per ml and the Septoria nodorum spore concentration is adjusted to approximately 2×10^6 per ml using a Burker-Turk or Fuchs-Rosenthal counter. Samples of 1.5 ml of the spore suspension are then mixed with 1.5 ml of sterile 40% glycerol in water, frozen for 1 day at −20° C. and thereafter stored at −80° C. until use.
(§3) Test plates for the factor are prepared by mixing at 46° C. a 1.5 ml spore sample (as described above) with 115 ml of antibiotic agar medium No. 2 (25.5 g per liter) comprising streptomycin at a final concentration of 100 μg per ml, and transferring the mixture to sterile plastic trays (Nunc No. 101875). After the agar has solidified, […] holes are punched into the agar (120 holes per tray).
(§4) Samples of a culture are serially diluted in 100 μg of streptomycn per ml of sterile water and 10 μl of the diluted samples are dispensed into the trays prepared as described above. The trays are incubated at 26° C. for 2 days. Dilutions of the factor are also run as a positive control.
(§5) The sensitivity of the fungal growth inhibition assay is in the range of 0.05 gram of the factor per liter (barely visible) and 0.1 gram of the factor per liter (clear zone) for both fungi.

[2] = test system: Spodoptera exigua; format: in vivo; parameters: key to Stunt Score: 4.0 = untreated control; 3.0 = 75% size of untreated control; 2.0 = 50% size of untreated control; 1.0 = 25% size of untreated control; 0.0 = no growth or size unchanged from start of experiment
Protocol: Activity is monitored by a Spodoptera exigua micro-bioassay, and purity is determined by capillary electrophoresis. […] The trays containing the various samples are air dried. Two to four 2nd or early 3rd instar Spodoptera exigua are added to the wells containing the dried sample. The wells are sealed with mylar poked with holes and are incubated for 2-3 days at 30° C. Degree of stunting and percent mortality are then recorded. Typically, 5 replicate wells are run for each sample.

[3] = test system: Septoria nodorum; assay: Fungal growth inhibition assay, Septoria nodorum; format: cell-based
Protocol: as §1, §2, §3, §4, §5

[4] = Stability of Ia (retention of activity); format: physicochemical
Protocol: Further, it is stable when subjected to direct sunlight for at least 10 hours. Ia is stable at a pH 2 for 3 days, but unstable at pH 12.

[5] = Solubility of Ia; format: physicochemical
Text: The active compound is found to be water soluble but is not soluble in organic solvents. […] A DEPT experiment determined that there are three quaternary carbons (C), seven methines (CH), three methylenes (CH2) and no methyl groups (CH3). Using proton coupling experiments such as 1-D decoupling and COSY, one large spin system containing eight carbons is identified. In addition, a smaller spin system consisting of two carbons is present. A carbon proton correlation experiment (HMBC) enabled assignment of each proton resonance in the molecule to its attached carbon.

[6] = test system: Phytophthora medicaginis; conditions: U.S. Pat. Nos. 4,877,738 and 4,878,936; cited from earlier work

NC(=O)NCC(NC(=O)C(O)C(O)C(N)C(O)CC(O)C(N)CO)C(N)=O (stereo not shown) [Ia]
effect on fungal growth ([1]; agar plates): inhibits growth | concentration giving barely visible inhibition (assay sensitivity) ([1]; barely visible, 26° C., 2 days): 0.05 gram of the factor per liter | concentration giving clear zone (assay sensitivity) ([1]; clear zone, 26° C., 2 days): 0.1 gram of the factor per liter | Stunt Score ([2]; Ia + alone, Bt protein None): 4.0 | effect on activity of B.t. subsp. kurstaki and aizawai crystal delta-endotoxin pesticidal proteins toward Spodoptera exigua ([2]; regardless of the form of the pesticidal proteins): potentiate | effect on fungal growth ([3]; agar plates): inhibits growth | concentration giving barely visible inhibition (assay sensitivity) ([3]; barely visible, 26° C., 2 days): 0.05 gram of the factor per liter | concentration giving clear zone (assay sensitivity) ([3]; clear zone, 26° C., 2 days): 0.1 gram of the factor per liter | stability upon autoclaving ([4]; autoclaving (>190° C.)): loses all activity | stability upon boiling ([4]; boiling for 5 minutes): stable | time stable in direct sunlight ([4]; direct sunlight): at least 10 hours | stability to periodic acid or concentrated HCl ([4]; exposed to periodic acid or concentrated HCl): lose all activity | stability at pH 2 ([4]; pH 2 for 3 days): stable | stability at pH 12 ([4]; pH 12): unstable | solubility in organic solvents ([5]; organic solvents): not soluble | solubility in water ([5]; water): water soluble

NC(=O)NCC(NC(=O)C(O)C(O)C(N)C(O)CC(O)C(N)CO)C(N)=O (stereo not shown) [zwittermicin A]
effect on growth of the plant pathogen Phytophthora medicaginis [6]: inhibits the growth | effect on infection of alfalfa [6]: reduces the infection

CryIA(c): Bacillus thuringiensis CryIA(c) delta-endotoxin protein purified from BIOBIT FC
Stunt Score ([2]; Bt protein 3 μg/ml, Ia +): 1.0 (1.0 = 25% size of untreated control) | Stunt Score ([2]; Bt protein 15 μg/ml, Ia +): 0.0 | Stunt Score ([2]; Bt protein 30 μg/ml, Ia −): 4.0 | concentration with Ia producing the same insect mortality/stunt score as protein alone ([2]; full-length protein, equals 240 μg/ml of CryIA(c) alone): 0.75 µg/mL | Stunt Score ([2]; purified truncated Bt protein OD280 0.0006, Ia +): 1.0 (1.0 = 25% size of untreated control) | Stunt Score ([2]; purified truncated Bt protein OD280 0.0012, Ia +): 1.0 (1.0 = 25% size of untreated control) | Stunt Score ([2]; purified truncated Bt protein OD280 0.0025, Ia +): 2.0 (2.0 = 50% size of untreated control) | Stunt Score ([2]; purified truncated Bt protein OD280 0.005, Ia +): 0.0 | Stunt Score ([2]; purified truncated Bt protein OD280 0.020, Ia +): 0.0 | OD280 in combination with Ia giving the same stunt score as protein alone ([2]; truncated protein, equals OD280 of 0.075 tested alone): 0.0006 OD280
